Data on 18 compounds can be found in patent US10968218B2, “Tetrahydropyridopyrimidines for the treatment and prophylaxis of hepatitis B virus infection” (Hoffmann-La Roche Inc., priority 2016, dated 2021).

One assay concerns HBsAg. Description: HBsAg assay (CLIA of secreted HBsAg in HepG2.2.15 culture supernatant). Format: cell-based, HBV. As to conditions: Hepatitis B virus. The method, then:
(§1) HepG2.2.15 cells (Acs et al. Proc Natl Acad Sci USA, 84, (1987), 4641-4), a constitutively HBV-expressing cell line were cultured in DMEM+Glutamax-I medium (Invitrogen, Carlsbad, Calif., USA), supplemented with 10% fetal bovine serum (Invitrogen) and G418 (Invitrogen) at a final concentration of 200 mg/L and maintained in 5% CO2 at 37° C.
HepG2.2.15 cells were seeded in duplicate into white, 96-well plates at 1.5×10^4 cells/well. The cells were treated with a three-fold serial dilution series of the compounds in DMSO. The final DMSO concentration in all wells was 1% and DMSO was used as no drug control.
The HBsAg chemiluminescence immunoassay (CLIA) kit (Autobio Diagnostics Co., Zhengzhou, China, Catalog number: CL0310-2) was used to measure the levels of secreted HBV antigens semi-quantitatively. For the detection 50 μL/well culture supernatant was used and HBsAg was quantified using HBsAg chemiluminescence immunoassay (CLIA) kit (Autobio Diagnostics Co., Zhengzhou, China, Catalog number: CL0310-2), 50 μL of the supernatant was transferred to the CLIA assay plate and 50 μL of enzyme conjugate reagent was added into each well. The plates were sealed and gently agitated for 1 hour at room temperature. The supernatant-enzyme-mixture was discarded and wells were washed 6 times with 300 μL of PBS. The residual liquid was removed by plating the CLIA plate right side down on absorbent tissue paper. 25 μL of substrates A and B were added to each well. Luminance was measured using a luminometer (Mithras LB 940 Multimode Microplate Reader) after 10 minutes incubation. Dose-response curves were generated and the IC50 value was extrapolated by using the E-WorkBook Suite (ID Business Solutions Ltd., Guildford, UK). The IC50 was defined as the compound concentration at which HBsAg secretion was reduced by 50% compared to the no drug control.
The compounds according to formula I were tested for their capacity to inhibit HBsAg as described herein.

Another assay has as its system HBV DNA. Description: HBV DNA assay (real-time qPCR/TaqMan of extracellular HBV DNA, HepG2.2.15 cells). The format is cell-based. As to conditions: Hepatitis B virus, 144 h; Anti HBV DNA production activity in HepG2.2.15 cells, supernatant, six days after treatment. The method, then:
as §1
The assay employs real-time qPCR (TaqMan) to directly measure extracellular HBV DNA copy number in the cell supernatant. HepG2.2.15 cells were plated in 96-well microtiter plates before treatment with complete medium (DMEM, Glutamax, 10% FBS, 1% Penicillin/Streptomycin, 250 μg/mL Genetycin, final DMSO concentration is 1%). Only the interior wells were utilized to reduce “edge effects” observed during cell culture, the exterior wells were filled with complete medium to help minimize sample evaporation. The HepG2.2.15 cells were treated 1 h later with various concentrations of a test compound in duplicate (top concentration used at 5 μM, 2 μM or 0.5 μM according to the HBsAg IC50 observed, with 1/3 successive dilutions (total of 10 dilutions). Six days following the initial administration of the test compound, the cell culture supernatant was collected; DNA extraction was performed by automated system (Magnapure) and then used in a real-time qPCR/TaqMan assay to determine HBV DNA copy numbers. Antiviral activity was calculated from the reduction in HBV DNA levels (IC50). The compounds of the present invention were tested for their capacity to inhibit HBV DNA as described herein.

The term IC50 denotes the concentration that inhibits the measured activity by half. Read a low IC50 as higher potency. `COc1cc(F)nc(N2CCc3nc(-c4ncc[nH]4)ncc3C2C)c1` (stereo not shown) [Example 26, 6-(6-Fluoro-4-methoxy-2-pyridyl)-2-(1H-imidazol-2-yl)-5-methyl-7,8-dihydro-5H-pyrido[4,3-d]pyrimidine]: the IC50 is 31 nM in the assay on HBsAg and 5.7 nM in the assay with HBV DNA. As for `COc1cc(F)nc(N2CCc3nc(-c4ncn[nH]4)ncc3C2C)c1` (stereo not shown) [Example 43, 6-(6-Fluoro-4-methoxy-2-pyridyl)-5-methyl-2-(1H-1,2,4-triazol-5-yl)-7,8-dihydro-5H-pyrido[4,3-d]pyrimidine], the IC50 in the assay on HBsAg was found to be 8 nM; in the assay on HBV DNA it was 1.7 nM. Take `COc1cc(F)nc(N2CCc3nc(-c4cscn4)ncc3C2C)c1` (stereo not shown) [Example 5, 4-[6-(6-Fluoro-4-methoxy-2-pyridyl)-5-methyl-7,8-dihydro-5H-pyrido[4,3-d]pyrimidin-2-yl]thiazole]: the IC50 with HBsAg came out at 23 nM; in the assay on HBV DNA it was 8.7 nM. Compound `CC1c2cnc(-c3cscn3)nc2CCN1c1cc(N2CCNC(=O)C2)cc(F)n1` (stereo not shown) [Example 29, 4-[2-fluoro-6-(5-methyl-2-thiazol-4-yl-7,8-dihydro-5H-pyrido[4,3-d]pyrimidin-6-yl)-4-pyridyl]piperazin-2-one] registered an IC50 in the assay on HBsAg of 34 nM.

Consider `COc1cc(N2CCc3nc(-c4nccn4C)ncc3C2)cc(F)c1F` [Example 1, 6-(3,4-Difluoro-5-methoxy-phenyl)-2-(1-methylimidazol-2-yl)-7,8-dihydro-5H-pyrido[4,3-d]pyrimidine], for which half-maximal inhibition in the assay with HBsAg (IC50) was put at 1160 nM.

For `CC1c2cnc(-c3cscn3)nc2CCN1c1cc(F)cc(N2CCNC(=O)C2)n1` (stereo not shown) [Example 30, 4-[4-fluoro-6-(5-methyl-2-thiazol-4-yl-7,8-dihydro-5H-pyrido[4,3-d]pyrimidin-6-yl)-2-pyridyl]piperazin-2-one], the IC50 with HBsAg came to 21 nM.

In the case of `COc1cc(F)nc(N2CCc3nc(-c4csc(C)n4)ncc3C2C)c1` (stereo not shown) [Example 15, 4-[6-(6-fluoro-4-methoxy-2-pyridyl)-5-methyl-7,8-dihydro-5H-pyrido[4,3-d]pyrimidin-2-yl]-2-methyl-thiazole], in the assay on HBsAg, the IC50 worked out at 1520 nM. In the case of `CC1c2cnc(-c3cscn3)nc2CCN1c1cc(F)nc(N2CCN(S(C)(=O)=O)CC2)c1` (stereo not shown) [Example 20, 4-[6-[2-fluoro-6-(4-methylsulfonylpiperazin-1-yl)-4-pyridyl]-5-methyl-7,8-dihydro-5H-pyrido[4,3-d]pyrimidin-2-yl]thiazole], the IC50 stood at 13 nM in the assay on HBsAg and 20.3 nM in the assay with HBV DNA. `CC1c2cnc(-c3cscn3)nc2CCN1c1cc(F)nc(N2CCOCC2)c1` (stereo not shown) [Example 12, 4-[6-fluoro-4-(5-methyl-2-thiazol-4-yl-7,8-dihydro-5H-pyrido[4,3-d]pyrimidin-6-yl)-2-pyridyl]morpholine]: the IC50 with HBsAg was determined as 36 nM. In turn, `CC1c2cnc(-c3cscn3)nc2CCN1c1cc(F)cc(N2CCOCC2)n1` (stereo not shown) [Example 14, 4-[4-fluoro-6-(5-methyl-2-thiazol-4-yl-7,8-dihydro-5H-pyrido[4,3-d]pyrimidin-6-yl)-2-pyridyl]morpholine] came in with an IC50 in the assay with HBsAg of 74 nM. For `COc1cc(F)nc(N2CCc3nc(-c4nccn4C)ncc3C2C)c1` (stereo not shown) [Example 7, 6-(6-Fluoro-4-methoxy-2-pyridyl)-5-methyl-2-(1-methylimidazol-2-yl)-7,8-dihydro-5H-pyrido[4,3-d]pyrimidine], in the assay with HBsAg, the IC50 was 16700 nM. In turn, `CC1c2cnc(-c3cscn3)nc2CCN1c1cc(F)nc(OCC(F)F)c1` (stereo not shown) [Example 34, 4-[6-[2-(2,2-difluoroethoxy)-6-fluoro-4-pyridyl]-5-methyl-7,8-dihydro-5H-pyrido[4,3-d]pyrimidin-2-yl]thiazole] yielded a concentration for half-maximal inhibition (IC50) in the assay with HBsAg of 140 nM. Same read-out and setting: then `CC1c2cnc(-c3cscn3)nc2CCN1c1cc(F)nc(OCC2CC2)c1` (stereo not shown) [Example 31, 4-[6-[2-(cyclopropylmethoxy)-6-fluoro-4-pyridyl]-5-methyl-7,8-dihydro-5H-pyrido[4,3-d]pyrimidin-2-yl]thiazole], with 117 nM; and `CC1c2cnc(-c3cscn3)nc2CCN1c1cc(N2CCOCC2)cc(F)n1` (stereo not shown) [Example 13, 4-[2-fluoro-6-(5-methyl-2-thiazol-4-yl-7,8-dihydro-5H-pyrido[4,3-d]pyrimidin-6-yl)-4-pyridyl]morpholine], with 33 nM; and `COc1cc(F)nc(N2CCc3nc(-c4cnc(C)s4)ncc3C2C)c1` (stereo not shown) [Example 16, 5-[6-(6-fluoro-4-methoxy-2-pyridyl)-5-methyl-7,8-dihydro-5H-pyrido[4,3-d]pyrimidin-2-yl]-2-methyl-thiazole], with 25800 nM.

Compound `COc1cc(F)nc(N2CCc3nc(-n4cccn4)ncc3C2C)c1` (stereo not shown) [Example 9, 6-(6-Fluoro-4-methoxy-2-pyridyl)-5-methyl-2-pyrazol-1-yl-7,8-dihydro-5H-pyrido[4,3-d]pyrimidine] came in with an IC50 with HBsAg of 95 nM.

`CC1c2cnc(-c3cscn3)nc2CCN1c1cc(N2CCN(S(C)(=O)=O)CC2)cc(F)n1` (stereo not shown) [Example 21, 4-[6-[6-fluoro-4-(4-methylsulfonylpiperazin-1-yl)-2-pyridyl]-5-methyl-7,8-dihydro-5H-pyrido[4,3-d]pyrimidin-2-yl]thiazole] had an IC50 with HBsAg of 16 nM.

`COc1cc(F)nc(N2CCc3nc(-c4cn(C)cn4)ncc3C2C)c1` (stereo not shown) [Example 8, 6-(6-Fluoro-4-methoxy-2-pyridyl)-5-methyl-2-(1-methylimidazol-4-yl)-7,8-dihydro-5H-pyrido[4,3-d]pyrimidine] returned an IC50 in the assay on HBsAg of 29 nM.
